This test is described as follows: ORAC (oxygen radical absorption capacity) test. The format is biochemical. The note with it: Trolox equivalent. The protocol:
The antioxidation capacity of the combination of propolis and each sample was verified by an oxygen radical absorption capacity (ORAC) test. The following samples were used.
Propolis: ethanol extract powder (Brazilian green propolis, containing arginine as an excipient)
Phosphatidylserine: synthetic product
Coffee fruit extract: water/ethanol extract powder
Gotu kola extract: water extract powder (containing less than 10% of maltodextrin as an excipient)
Each sample was dissolved in a 50% ethanol aqueous solution. […]
The obtained test solution was diluted with a 75 mM phosphate buffer and put into a 96-well plate, and a fluorescein solution was added thereto. When the 96-well plate was heated to 37° C., AAPH (2,2′-azobis(2-amidinopropane)dihydrochloride) was added, and the fluorescence intensity decay time was measured with a microplate reader every 5 minutes for 1.5 hours. A standard curve was created using Trolox as a standard reagent, and the antioxidation power of each sample was calculated as a Trolox equivalent (μmol TE/g).
In Table 1, the expected value is a sum of ORAC values of respective components alone in each combination. The rate of increase is a value obtained by multiplying a result obtained by dividing the measured value by the expected value by 100.

The values below come from patent US20220370513A1, “COMPOSITION, ANTIOXIDANT AGENT, ANTISACCHARIFICATION AGENT, NEURITE OUTGROWTH PROMOTER, AND COGNITIVE FUNCTION IMPROVER” (YAMADA BEE COMPANY, INC., priority 2019, published 2022).

With Phosphatidylserine, the “Single raw material ORAC” value amounted to 12 μmol TE/g.
